Data on one molecule can be found in patent US4650888A, “Pentaerythritol derivative” (Chugai Seiyaku Kabushiki Kaisha, priority 1984, dated 1987).

In the test the test system is Shay rats (pylorus-ligated, gastric ulcers in the forestomach). Nature of the test: Anti-ulcer activity on Shay rats. To be noted: male SD rats, 300 mg/kg orally, 16 hours. Format: in vivo. On the procedure:
Anti-ulcer activity on Shay rats:
Male SD rats (180-200 g) were deprived of food for 48 hours and had free access to water. Under ether anesthesia the abdomen of each rat was incised and the pylorus ligated. Concurrently the test complex was orally administered and the abdomen was closed. The animals were killed 16 hours later by an overdose, and the stomach of each rat removed. The stomach was incised along the greater curvature and examined for gastric ulcers developed in the forestomach. The damaged mucosa in shay ulcers was measured under a dissecting microscope (x10) with a square grid, summed, and arbitrarily classified into 5 degrees by an erosion index.

As to `O=S(=O)([O-])OCC(COCC(COS(=O)(=O)[O-])(COS(=O)(=O)[O-])COS(=O)(=O)[O-])(COS(=O)(=O)[O-])COS(=O)(=O)[O-].[Na+].[Na+].[Na+].[Na+].[Na+].[Na+]` [Na salt, Sodium salt of sulfuric acid ester of dipentaerythritol], the “Erosion Index (mean ± SE)” value turned out to be 1.4 ± 0.2. Also, the “Percent Inhibition (%)” value (versus control (H2O)) came out at 58.8%.
